pIC50: −log10 of the molar value. Read-outs that look alike come from different tables or passages of the source.
Experiments:
23SK skin cells = test: Cell cycle distribution by flow cytometry in 23SK skin cells; format: cell-based, human; details: for Cell Cycle Distribution At IC80 Dose: G1 / Cell Cycle Distribution At IC80 Dose: G2/M / Cell Cycle Distribution At IC80 Dose: S: 23SK cells
Source text: FIGS. 5A-5D are cell histograms showing the results from flow cytometry analysis of chemoprotective polyamine-treated 23SK skin cells.
In FIG. 5, cell histograms showing the results from flow cytometry analysis of chemoprotective polyamine-treated 23SK skin cells are shown. […] The transient nature of the cell cycle block induced by chemoprotective polyamines is believed to be an important aspect of their efficacy, i.e., their ability to block cell cycle progression in stem cells during the course of chemo- or radiotherapy, and the resumption of normal stem cell division after a given cancer therapy course has been completed.

[1] = system: primary, diploid fibroblasts isolated from human skin; test: In vitro growth inhibition of primary diploid human skin fibroblasts; format: cell-based
Procedure: FIG. 2 illustrates the relationship between the number of aliphatic carbon atoms in each chemoprotective polyamine side chain (‘arm’) and the respective IC50 dose for inhibition of human fibroblast growth.
The in vitro growth inhibitory effects of certain of the chemoprotective polyamines of the invention were measured using primary, diploid fibroblasts isolated from human skin.

helical B-DNA = test: DNA binding/denaturation/precipitation from solution
Source text: The chemoprotective polyamines of the invention are also able to bind, denature and precipitate DNA from solution As is known in the field, as the concentration of polyamine is increased, there is a point where polyamine binding to helical B-DNA induces single-stranded ‘bubbles’ and conversion to other forms of DNA structure, such as 2-DNA (Feuerstein, B. et al. Nuc. Acids Res. 17:6883-6892, 1989; Basu, H. and Marton, L. Biochem. J. 244:243-246, 1987), as well as precipitating the DNA from solution.
This relationship between arm length of the chemoprotective polyamine and increased ability to disrupt and denature B-DNA structure is also a unique aspect of this invention. The increased ability to bind DNA and disrupt its helical structure may also contribute to the molecule's ability to protect cellular DNA against electrophilic chemotherapy drug metabolites and against oxygen free radicals generated during radiotherapy. Both of these toxic modalities are believed to require normal B-DNA helical structure within the cell's nuclear DNA in order to achieve chemical or physical disruption of the cellular DNA, the first step in the apoptotic cascade.

p21 = p21 induction in 23SK human skin cells by western analysis; format: cell-based; details: 30 hr exposure
Procedure: FIGS. 3A and 3B illustrate the level of induced p21 protein seen in diploid human fibroblasts after a 30 hr exposure to each of the indicated chemoprotective polyamines. […] In these experiments, the 23SK human skin cells were exposed for 30 hr to an “ICso” dose of each of the indicated chemoprotective polyamines and then lysed. Cell extracts were then prepared in order to measure p21 levels by western analysis (FIG. 3A).
FIG. 3 illustrates that chemoprotective polyamines are able to induce expression of the negative cell cycle regulatory protein, p21, after exposing the human skin cells to the polyamine molecules. […] In these experiments, the 23SK human skin cells were exposed for 30 hr to an “IC80” dose of each of the indicated chemoprotective polyamines and then lysed. Cell extracts were then prepared in order to measure p21 levels by western analysis (FIG. 3A). Although the ability of modified polyamines to induce p21 is known in the literature (Kramer, D. et al., Cancer Res. 59:1278-1286, 1999), it is a novel aspect of this invention that those chemoprotective polyamines with longer aliphatic “arms” were better able to induce expression of p21 as shown in FIG. 4.

[2] = system: Cytoxan-induced alopecia in the rat model; format: in vivo; details: rat pups, 35 ug/gm i.p., approximately 7 days after challenge
Source text: FIGS. 6A-6E illustrate the efficacy of each of the indicated chemoprotective polyamines in protecting against Cytoxan-induced alopecia in the rat model Hussein et al., 1990, infra). In this protocol (See Example 2), chemoprotective polyamines are applied topically to the rat pups' backs in an alcohol:water delivery vehicle, once per day, for five days before and five days after a single systemic dose of Cytoxan.
The efficacy of […] polyamines in reducing or preventing chemotherapy-induced alopecia in a rat model was examined. This animal model mimics many of the features found in chemotherapy-induced alopecia seen in humans and is considered a clinically relevant model for testing novel therapeutics.
Induction of alopecia by cytoxan (CTX). Lactating Sprague Dawley mother rats with rat pups were purchased from Harlan Sprague Dawley (Indianapolis, Ind.). The mother rats were given food and water ad libitum. The rats pups were tested in the model of chemotherapy-induced alopecia described by Hussein A. M. et al., Science: 249, 1564 (1990). Cytoxan (CTX), a chemotherapeutic widely used in the treatment of cancer, was used to induce alopecia in the rats. […]
Approximately 7 to 10 days after CTX treatment, the pups were evaluated for alopecia Hair loss was evaluated using a modified alopecia-scoring index described by Chen G. et al., Int. […]

[3] = Expt. 1, read-out: IC50 (drug concentration that caused a 50% inhibition of cell growth), Expt. 1
[4] = Expt. 1 (first or only value in cell), read-out: DNA Bind/ppt. IC50, Expt. 1
[5] = Expt. 2 (second value in cell), read-out: DNA Bind/ppt. IC50, Expt. 2
[6] = Expt. 2, read-out: IC50 (drug concentration that caused a 50% inhibition of cell growth), Expt. 2
[7] = 23SK cells treated for 72 hr (FIG. 5C)

Row | Compound | Cell Cycle Distribution At IC80 Dose: G1 (23SK skin cells) | Cell Cycle Distribution At IC80 Dose: G2/M (23SK skin cells) | Cell Cycle Distribution At IC80 Dose: S (23SK skin cells) | pIC50 [1, 3] | pIC50 (helical B-DNA; [4]) | pIC50 (helical B-DNA; [5]) | p21 fold-induction at IC80 Dose (p21) | hair loss induced [2] | pIC50 [1, 6] | cells in G1 compartment (23SK skin cells; [7]) | cells in S+G2 compartments (23SK skin cells; [7]) | distribution within cell cycle compartments after drug removal (23SK skin cells; 72 hr treatment, then 48 hr in medium devoid of compound (FIG. 5D))
1 | CCNCCCCNCCCCNCCCCNCC=C(CNCC)CNCCCCNCCCCNCCCCNCC [PrC-112] | 61% | 16% | 23% | – | – | – | – | – | – | – | – | –
2 | CCNCCCCNCCCCNCCCCNCC=C(CS)CNCCCCNCCCCNCCCCNCC [PrC-116] | 66% | 23% | 11% | 5.24 | 4.09 | 4.20 | 2.32 fold | – | – | – | – | –
3 | O=P1(N(CCCl)CCCl)NCCCO1 (stereo not drawn) [CTX, cyclophosphamide(cytoxan)] | – | – | – | – | – | – | – | 100% | – | – | – | –
4 | CCNCCCCNCCCCNCCCCNCCCCNCC=C(CNCCCCNCCCCNCCCCNCCCCNCC)CN(C)C [PrC-121] | 76% | 20% | 4% | 6.82 | 4.31 | – | 3.26 fold | – | – | – | – | –
5 | CCNCCCCNCCCCNCC=C(CS)CNCCCCNCCCCNCC [PrC-115] | – | – | – | 2.39 | 4.43 | 4.08 | – | – | 2.96 | – | – | –
6 | CCNCCCCNCC=C(CS)CNCCCCNCC [PrC-114] | – | – | – | 3.07 | 4.03 | – | – | – | 3.62 | – | – | –
7 | CCNCCCCNCC=C(CNCC)CNCCCCNCC [PrC-110] | 60% | 14% | 26% | – | – | – | – | – | – | – | – | –
8 | CN[C@H]1CCc2cc(OC)c(OC)c(OC)c2-c2ccc(OC)c(=O)cc21 [Colcemid, reference compound] | 8% | 81% | 11% | – | – | – | – | – | – | – | – | –
9 | CCNCCCCNCCCCNCC=C(CNCC)CNCCCCNCCCCNCC [PrC-111] | 60% | 14% | 25% | – | – | – | – | – | – | – | – | –
10 | CCNCCCCNCCCCNCCCCNCCCCNCC=C(CS)CNCCCCNCCCCNCCCCNCCCCNCC [PrC-117] | 86% | 3% | 11% | 6.49 | 4.24 | 4.24 | ˜3.0 fold | – | 6.62 | 86.23% | 13.77% | basically returned to that seen in cells previously untreated with chemoprotective polyamine
11 | CCNCCCCNCCCCNCCCCNCCCCNCC=C(CNC)CNCCCCNCCCCNCCCCNCCCCNCC [PrC-120] | – | – | – | 6.66 | 4.24 | – | 2.01 fold | – | 6.74 | – | – | –
12 | CCNCCCCNCCCCNCCCCNCCCCNCC=C(CNCC)CNCCCCNCCCCNCCCCNCCCCNCC [PrC-113] | 77% | 14% | 8% | – | – | – | – | – | – | – | – | –
